Source: patent publication US11339160B2, “Imidazole and triazole containing bicyclic compounds as JAK inhibitors” (THERAVANCE BIOPHARMA R&D IP, LLC, priority 2019, dated 2022)

What was measured:
[1] = system: IL-2 stimulated STAT5 phosphorylation in CD4+ T cells isolated from murine splenocytes; assay: Inhibition of IL-2 stimulated pSTAT5 in CD4+ T cells isolated from murine splenocytes; format: cell-based; settings: Mus musculus, IL-2 7 ng/ml, read-out: pIC50, inhibition of IL-2 stimulated pSTAT5 (converted)
Experimental: Assay 3: Inhibition of IL-2 Stimulated pSTAT5 in CD4+ T Cells Isolated from Murine Splenocytes
The potency of test compounds for inhibition of interleukin-2 (IL-2) stimulated STAT5 phosphorylation was measured in the CD4+ T cells isolated from murine splenocytes using AlphaLisa. Because IL-2 signals through JAK3, this assay provides a measure of JAK3 cellular potency in mouse.
Phosphorylated STAT5 was measured via the AlphaLISA SureFire Ultra pSTAT5 (Tyr694/699) kit (PerkinElmer).
CD4+ T cells were isolated from murine splenocytes via negative selection on a magnetic column (Miltnyi Biotec) and re-suspended in assay media (phenol red-free DMEM (Life Technologies) supplemented with 10% FBS (ATCC)). Cells were seeded at 50,000 cells/well in assay media (2 μL/well). Compounds were serially diluted in DMSO and diluted to 2× final concentration in assay media. Compound was added (4 μl/well) and the cells incubated at 37° C., 5% CO2 for 1 hour, followed by the addition of IL-2 (R&D Systems; final concentration 7 ng/ml) in pre-warmed assay media (2 μL) for 30 minutes. After cytokine stimulation, cells were lysed with 2 μl of 5× AlphaLisa Lysis Buffer (PerkinElmer). The lysate was shaken at 900 rpm for 10 minutes at room temperature (RT). Phosphorylated STAT5 was measured via the pSTAT5 AlphaLisa kit (PerkinElmer). Freshly prepared acceptor bead mixture was dispensed onto lysate (5 ul) under green filtered <100 lux light. Plates were shaken at 900 rpm for 2 mins, briefly spun down, and incubated for 2 hrs at RT in the dark. Donor beads were dispensed (5 μl) under green filtered <100 lux light. Plates were shaken at 900 rpm for 2 mins, briefly spun down, and incubated overnight at RT in the dark. Luminescence was measured with excitation at 689 nm and emission at 570 nm using an EnVision plate reader (PerkinElmer) under green filtered <100 lux light.
To determine the inhibitory potency of test compounds in response to IL-2, the average emission intensity of beads bound to pSTAT5 was measured in primary CD4+ T cells isolated from murine splenocytes. IC50 values were determined from analysis of the inhibition curves of signal intensity vs compound concentration. Data are expressed as pIC50 (negative decadic logarithm IC50) values (mean standard deviation).

[2] = molecular target: JAK3 (Homo sapiens (Human), UniProt P52333); assay: Biochemical JAK3 kinase assay (LanthaScreen); settings: for JAK3 (pKi)-JAK1 (pKi): selectivity, difference of pKi values
Experimental: (§1) Assay 1: Biochemical JAK and Tyk2 Kinase Assays
(§2) A panel of four LanthaScreen JAK biochemical assays (JAK1, 2, 3 and Tyk2) were carried in a common kinase reaction buffer (50 mM HEPES, pH 7.5, 0.01% Brij-35, 10 mM MgCl2, and 1 mM EGTA). Recombinant GST-tagged JAK enzymes and a GFP-tagged STAT1 peptide substrate were obtained from Life Technologies.
Serially or discretely diluted compounds were pre-incubated with each of the four JAK enzymes and the substrate in white 384-well microplates (Corning) at ambient temperature for 1 h. ATP was subsequently added to initiate the kinase reactions in 10 μL total volume, with 1% DMSO. […] Kinase reactions were allowed to proceed for 1 hour at ambient temperature before a 10 μL preparation of EDTA (10 mM final concentration) and Tb-anti-pSTAT1 (pTyr701) antibody (Life Technologies, 2 nM final concentration) in TR-FRET dilution buffer (Life Technologies) was added. The plates were allowed to incubate at ambient temperature for 1 h before being read on the EnVision reader (Perkin Elmer). Emission ratio signals (520 nm/495 nm) were recorded and utilized to calculate the percent inhibition values based on DMSO and background controls.
(§3) For dose-response analysis, percent inhibition data were plotted vs. compound concentrations, and IC50 values were determined from a 4-parameter robust fit model with the Prism software (GraphPad Software). Results were expressed as pIC50 (negative logarithm of IC50) and subsequently converted to pKi (negative logarithm of dissociation constant, Ki) using the Cheng-Prusoff equation.

[3] = molecular target: JAK1 (Homo sapiens (Human), UniProt P23458); assay: Biochemical JAK1 kinase assay (LanthaScreen); settings: 1 h pre-incubation, ATP at Km 25 μM; pKi from pIC50 by Cheng-Prusoff
Experimental: as §1, §2
Serially or discretely diluted compounds were pre-incubated with each of the four JAK enzymes and the substrate in white 384-well microplates (Corning) at ambient temperature for 1 h. ATP was subsequently added to initiate the kinase reactions in 10 μL total volume, with 1% DMSO. […] The plates were allowed to incubate at ambient temperature for 1 h before being read on the EnVision reader (Perkin Elmer). Emission ratio signals (520 nm/495 nm) were recorded and utilized to calculate the percent inhibition values based on DMSO and background controls.
as §3

[4] = Colon and plasma mouse pharmacokinetics; format: in vivo; settings: male Balb/c mice, 10 mg/kg PO, 0.5, 2 and 6 h
Experimental: Assay 6: Colon and Plasma Mouse Pharmacokinetics
6 male Balb/c mice were administered 10 mg/kg of compound in 1% HPMC+0.1% Tween-80 by PO administration. At 0.5, 2 and 6 hours after dose administration, animals were anesthetized, and terminal blood samples were collected by cardiac puncture, followed by collection of colon contents and colon tissue.
Blood samples were collected into K2EDTA and stored on wet ice until processed to plasma by centrifugation (12,000 rpm at 4° C.). Plasma samples were transferred to cluster tubes and placed on dry ice prior to freezer storage. The colon contents from each animal were collected at each terminal blood collection time point. The colon tissues were flushed with saline and patted dry. The colon and colon content tissues were homogenized using sterile water containing 0.1% formic acid 9:1 (water:tissue, v/w). […] All samples were analyzed using LC/MS/MS against analytical standards.
The composite pharmacokinetic parameters of the compounds were determined by non-compartmental analysis using Phoenix WinNonlin Version 6 (Certara, St. Louis, Mo.) and using mean values from 2 animals/time point. For plasma concentrations below the quantification limit (BQL), the lowest concentration measurable or the BLOQ (below limit of quantification) was used.
A colon to plasma ratio was determined as the ratio of the colon AUC to the plasma AUC.

[5] = system: Caco-2 cell monolayers; assay: Caco-2 permeation assay; settings: 5 μM, A to B, + Verapamil 25 μM; unit taken from the thresholds in the same block
Experimental: The Caco-2 permeation assay was performed to model the ability of test compounds to pass through the intestine and get into the blood stream after oral administration. The rate at which test compounds in solution permeate a cell monolayer designed to mimic the tight junction of human small intestinal monolayers was determined.
CacoReady 24-well transwell plates were obtained from ADMEcell (Alameda, Calif.). The compounds were evaluated at a concentration of 5 μM from 10 mM DMSO stock solutions in duplicate (n=2). The passive permeability of the compounds tested was evaluated using Caco-2 cell monolayers along with Verapamil (25 μM) to inhibit P-gp transport proteins in the apical to basolateral (A-B) direction. The experiment was conducted in a 37° C., 5% CO2 incubator. Caco-2 culture media consisted of standard filtered DMEM, FCS 10%, L-Glutamine 1% and PenStrep 1%. Basal assay plate was prepared by adding 750 μL of transport buffer to A-B wells. A CacoReady™ plate was prepared by removing the Caco-2 media from the apical wells and replacing with fresh transport media (200 μL repeated for a total of 3 washes). Blank media (200 μL) was then replaced with diluted compound for A-B wells. […] The permeation coefficient (Kp, mean A to B+Verapamil Papparent) in cm/sec was calculated as dQ (flux)/(dt×Area×concentration). […]

Sequence of JAK3 (P52333 whole entry): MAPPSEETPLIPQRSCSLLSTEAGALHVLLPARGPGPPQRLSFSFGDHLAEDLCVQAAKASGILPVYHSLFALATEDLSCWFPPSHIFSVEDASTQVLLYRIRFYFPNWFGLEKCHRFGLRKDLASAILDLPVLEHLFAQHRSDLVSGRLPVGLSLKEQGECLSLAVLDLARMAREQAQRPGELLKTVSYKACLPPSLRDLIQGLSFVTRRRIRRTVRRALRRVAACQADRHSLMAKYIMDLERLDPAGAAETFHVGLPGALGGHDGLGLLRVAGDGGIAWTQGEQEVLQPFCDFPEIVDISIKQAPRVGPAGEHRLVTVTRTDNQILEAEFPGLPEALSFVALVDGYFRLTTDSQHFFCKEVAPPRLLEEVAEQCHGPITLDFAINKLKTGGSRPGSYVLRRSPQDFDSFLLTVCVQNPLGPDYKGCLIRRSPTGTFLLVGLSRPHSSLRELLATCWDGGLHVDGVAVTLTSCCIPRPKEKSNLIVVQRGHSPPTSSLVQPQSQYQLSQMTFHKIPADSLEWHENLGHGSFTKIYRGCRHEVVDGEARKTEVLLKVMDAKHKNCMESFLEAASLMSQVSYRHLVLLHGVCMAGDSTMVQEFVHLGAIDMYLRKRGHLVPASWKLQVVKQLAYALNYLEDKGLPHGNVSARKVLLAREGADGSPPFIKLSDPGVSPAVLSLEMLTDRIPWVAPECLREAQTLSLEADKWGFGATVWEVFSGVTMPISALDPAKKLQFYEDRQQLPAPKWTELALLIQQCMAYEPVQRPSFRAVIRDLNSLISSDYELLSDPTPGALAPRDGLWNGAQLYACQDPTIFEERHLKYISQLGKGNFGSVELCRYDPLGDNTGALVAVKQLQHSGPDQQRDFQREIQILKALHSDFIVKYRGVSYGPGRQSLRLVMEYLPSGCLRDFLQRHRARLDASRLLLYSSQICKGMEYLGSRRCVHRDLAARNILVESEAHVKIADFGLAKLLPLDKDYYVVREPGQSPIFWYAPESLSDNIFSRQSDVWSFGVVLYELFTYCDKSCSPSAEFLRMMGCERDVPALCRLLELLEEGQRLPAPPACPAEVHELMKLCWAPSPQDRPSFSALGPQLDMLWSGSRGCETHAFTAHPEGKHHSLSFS
Sequence of JAK1 (P23458 whole entry): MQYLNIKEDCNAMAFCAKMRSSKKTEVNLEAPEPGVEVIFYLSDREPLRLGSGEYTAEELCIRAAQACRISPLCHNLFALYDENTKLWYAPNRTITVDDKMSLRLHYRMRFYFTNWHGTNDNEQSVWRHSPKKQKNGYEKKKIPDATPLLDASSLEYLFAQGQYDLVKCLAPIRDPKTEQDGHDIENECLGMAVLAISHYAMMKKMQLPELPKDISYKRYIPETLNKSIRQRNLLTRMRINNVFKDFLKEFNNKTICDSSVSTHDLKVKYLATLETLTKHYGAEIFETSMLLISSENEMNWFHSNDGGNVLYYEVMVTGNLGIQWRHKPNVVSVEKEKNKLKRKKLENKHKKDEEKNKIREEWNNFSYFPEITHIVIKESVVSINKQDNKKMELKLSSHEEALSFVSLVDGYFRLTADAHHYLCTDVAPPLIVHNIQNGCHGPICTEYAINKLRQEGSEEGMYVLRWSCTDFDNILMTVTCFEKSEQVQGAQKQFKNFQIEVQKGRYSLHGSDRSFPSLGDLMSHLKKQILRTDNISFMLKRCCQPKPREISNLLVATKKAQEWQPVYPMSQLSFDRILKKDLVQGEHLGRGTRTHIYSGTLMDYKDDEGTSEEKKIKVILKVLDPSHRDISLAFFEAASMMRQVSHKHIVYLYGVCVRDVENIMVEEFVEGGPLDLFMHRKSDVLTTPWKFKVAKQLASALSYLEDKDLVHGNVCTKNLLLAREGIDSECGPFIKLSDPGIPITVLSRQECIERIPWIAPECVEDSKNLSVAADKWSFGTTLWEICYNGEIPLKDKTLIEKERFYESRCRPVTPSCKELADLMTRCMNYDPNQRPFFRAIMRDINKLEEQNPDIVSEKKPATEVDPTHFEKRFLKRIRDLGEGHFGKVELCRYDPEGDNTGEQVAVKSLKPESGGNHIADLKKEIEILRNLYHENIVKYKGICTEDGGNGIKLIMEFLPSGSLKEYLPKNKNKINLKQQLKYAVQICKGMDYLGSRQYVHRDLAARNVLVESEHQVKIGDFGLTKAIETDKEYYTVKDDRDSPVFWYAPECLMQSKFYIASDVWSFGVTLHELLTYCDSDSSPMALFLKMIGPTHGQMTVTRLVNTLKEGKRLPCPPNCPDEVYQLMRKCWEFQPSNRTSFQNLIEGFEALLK

Structure (SMILES) | IC50 [1] | JAK3 (pKi)-JAK1 (pKi) [2] | further results
C=CC(=O)N1CC(COc2cc(-c3cc(F)c(O)c(Cl)c3)cn3cncc23)C1 [Example 31] | < 1000 nM | A (a value of 3 or above) | 
C=CC(=O)N1CC(COc2cc(-c3c(F)cc(O)cc3F)cn3cncc23)C1 [Example 7, 1-(3-(((6-(2,6-difluoro-4-hydroxyphenyl)imidazo[1,5-a]pyridin-8-yl)oxy)methyl)azetidin-1-yl)prop-2-en-1-one] | < 1000 nM | A (a value of 3 or above) | 
C=CC(=O)N1CC(COc2cc(-c3ccc(O)c(F)c3)cn3cncc23)C1 [Example 20] | < 1000 nM | A (a value of 3 or above) | 
C=CC(=O)N1CC(COc2cc(-c3ccc(O)c(Cl)c3)cn3cncc23)C1 [Example 12, 1-(3-(((6-(3-chloro-4-hydroxyphenyl)imidazo[1,5-a]pyridin-8-yl)oxy)methyl)azetidin-1-yl)prop-2-en-1-one] | < 1000 nM | A (a value of 3 or above) | 
C=CC(=O)N1CCC(N(C)c2cc(-c3ccc(O)cc3)cn3cncc23)CC1 [Example 17] |  | B (a value of 2.3 to 3) | Ki ([2]; 1 h pre-incubation, ATP at Km 1.6 μM, pKi from pIC50 by Cheng-Prusoff, read-out: JAK 3 (pKi) (converted)): 1 to 10 nM; JAK 1 (pKi) [3]: E (a pKi value of 7 or below (Ki of 100 nM or above))
C=CC(=O)N1CC(COc2cc(-c3ccc(O)c(F)c3F)cn3cncc23)C1 [Example 8, 1-(3-(((6-(2,3-difluoro-4-hydroxyphenyl)imidazo[1,5-a]pyridin-8-yl)oxy)methyl)azetidin-1-yl)prop-2-en-1-one] | < 1000 nM | A (a value of 3 or above) | 
CCc1cc(O)c(F)cc1-c1cc(OCC2CN(C(=O)/C=C/CN(C)C)C2)c2cncn2c1 [Example 24] | < 1000 nM | A (a value of 3 or above) | 
C=CC(=O)N1CC(COc2cc(-c3ccc(O)c(C)c3)cn3cncc23)C1 [Example 34] | < 1000 nM | A (a value of 3 or above) | 
C=CC(=O)N1CC(COc2cc(-c3cc(Cl)c(O)c(OC)c3)cn3cncc23)C1 [Example 9, 1-(3-(((6-(3-chloro-4-hydroxy-5-methoxyphenyl)imidazo[1,5-a]pyridin-8-yl)oxy)methyl)azetidin-1-yl)prop-2-en-1-one] | < 1000 nM | A (a value of 3 or above) | 
C=CC(=O)N1CC[C@@H](Oc2cc(-c3ccc(O)cc3)cn3cncc23)C[C@H]1C [Example 15, 1-((2R,4R)-4-((6-(4-hydroxyphenyl)imidazo[1,5-a]pyridin-8-yl)oxy)-2-methylpiperidin-1-yl)prop-2-en-1-one] | < 1000 nM | A (a value of 3 or above) | 
C=CC(=O)N1CC(COc2cc(-c3cc(F)c(O)cc3CC)cn3cncc23)C1 [Example 13, 1-(3-(((6-(2-ethyl-5-fluoro-4-hydroxyphenyl)imidazo[1,5-a]pyridin-8-yl)oxy)methyl)azetidin-1-yl)prop-2-en-1-one] | < 1000 nM | A (a value of 3 or above) | 
C=CC(=O)N1CC(C(C)(C)Oc2cc(-c3ccc(O)cc3)cn3cncc23)C1 [Example 28] | < 1000 nM | A (a value of 3 or above) | 
C=CC(=O)N1C[C@H](Nc2ncnc3[nH]ccc23)CC[C@@H]1C [PF-06651600, 2-propen-1-one, 1-[(2S,5R)-2-methyl-5-(7H-pyrrolo[2,3-d]pyrimidin-4-ylamino)-1-piperidinyl]] |  |  | colon to plasma ratio (colon AUC to plasma AUC) [4]: 2.8; Kp value [5]: 25 ×10⁻⁶ cm/s
C=CC(=O)N1CC(COc2cc(-c3ccc(O)cc3)cn3cncc23)C1 [Example 11, 1-(3-(((6-(4-hydroxyphenyl)imidazo[1,5-a]pyridin-8-yl)oxy)methyl)azetidin-1-yl)prop-2-en-1-one] | < 1000 nM | A (a value of 3 or above) | 
